The subject of data set [1] is HBsAg. Briefly: HBsAg inhibition in HepG2.2.15 culture supernatant (ELISA). Particulars: Hepatitis B virus, HepG2.2.15, 192 h, read-out: Activity in HBsAg inhibition, EC50. It is filed as cell-based, HBV. As to the method: Test method: HepG2.2.15 cell line was seeded into 96-well plates at 1.5×10^4 cells/well. On the following day, the cells were treated with a three-fold serial dilution series of the compounds at eight concentration points, and 2 duplicate wells were determined in parallel. The final DMSO concentration in the culture solution was 0.5%. On the fifth day, the culture solution was replaced with fresh solution containing the compounds. On the eighth day, the culture supernatant was collected and the HBsAg in the culture supernatant was detected by ELISA. The percent inhibition was calculated with respect to the blank control.
In general terms: An ELISA detects its analyte on a solid surface through an enzyme-linked reagent.

Data set [2] in a line: Rat PK study (single IV and PO dose, plasma LC-MS/MS). It counts as in vivo, S-D rats. Conditions: for F / AUC(0-t) / clearance / half-life / Vd / Cmax / Tmax: S-D rats; for F: PO 10 mg/kg vs IV 2 mg/kg; for AUC(0-t) / clearance / half-life / Vd / Cmax / Tmax: Sprague-Dawley (S-D), rat, plasma; for Vd: read-out: Vdss; for PK properties (overall judgement): combining PK data of IV and PO. As to the method: Preparation of intravenous injection formulation: accurately weighing 2-3 mg of a sample, adding appropriate amount of N,N-dimethylacetamide (DMA), vortex oscillating to completely dissolve the solid matter; adding an appropriate volume of 30% Solutol HS-15 aqueous solution, vortex oscillating and then adding saline, so that DMA: 30% Solutol HS-15:saline=20:20:60 (v/v/v), vortex oscillating the liquid to mix the liquid evenly, and filtering to obtain a pharmaceutical preparation of a concentration of 0.4 mg·mL^−1.
Preparation of oral formulation: accurately weighing 10 mg of a sample, adding an appropriate volume of 0.5% CMC-Na aqueous solution, vortex oscillating and ultrasounding to mix the liquid evenly to obtain a pharmaceutical preparation of a concentration of 1 mg·mL^−1.
The formulations were freshly prepared on the day of administration, and samples were reserved and taken for the determination of the actual concentration.
S-D rats of Group A were given a single intravenous injection (IV) of 2 mg·kg^−1, respectively; S-D rats of Group B were given a single gavage administration (PO) of 10 mg·kg^−1, respectively. Approximately 0.15 mL of blood sample will was collected via jugular vein into EDTA-K2 tubes at the designated time points of pre-dose, and 5 min (IV only), 15 min, 30 min, 1 h, 2 h, 4 h, 8 h, 12 h and 24 h post dose. All of the whole blood samples were centrifuged for 10 min (at 5500 rpm) to obtain plasma samples, which were stored at a refrigerator below −30˜−10° C. Concentrations of compounds in the plasma samples were analyzed using a LC-MS/MS method. The pharmacokinetic parameters were calculated using non-compartment model in Pharsight Phoenix 7.0 software. See Tables 2a and 2b for the results.

Molecules are shown by their SMILES.

Usually EC50 stands for the concentration giving half of the maximal effect. Regarding `COc1cc2c(cc1OCC1CC(OC)C1)CC(C(C)(C)C)n1cc(C(=O)O)c(=O)cc1-2` (racemic) [Compound I-32-rac, 6-(tert-butyl)-10-methoxy-9-((3-methoxycyclobutyl)methoxy)-2-oxo-6,7-dihydro-2H-pyrido[2,1-α]isoquinoline-3-carboxylic acid], the EC50 in data set [1] was 7.31 nM.
Regarding `COCC(C)(C)C1Cc2cc(O[C@@H]3CCOC3)c(OC)cc2-c2cc(=O)c(C(=O)O)cn21` (mixture of isomers) [Compound I-52-rac, 10-methoxy-6-(1-methoxy-2-methylpropan-2-yl)-2-oxo-9-(((R)-tetrahydrofuran-3-yl)oxy)-6,7-dihydro-2H-pyrido[2,1-α]isoquinoline-3-carboxylic acid], the EC50 in data set [1] came out at 7.57 nM.
Regarding `COCC(C)(C)C1Cc2cc(O[C@H]3C[C@H](OC)C3)c(OC)cc2-c2cc(=O)c(C(=O)O)cn21` (mixture of isomers) [Compound I-53-rac, 10-methoxy-6-(1-methoxy-2-methylpropan-2-yl)-9-((1R,3R)-3-methoxycyclobutoxy)-2-oxo-6,7-dihydro-2H-pyrido[2,1-α]isoquinoline-3-carboxylic acid], the EC50 in data set [1] was 6.65 nM.
Still for that read-out and setting: in the case of `COCC1(COc2cc3c(cc2OC)-c2cc(=O)c(C(=O)O)cn2C(C(C)(C)COC)C3)CC1` (racemic) [Compound I-54-rac, 10-methoxy-6-(1-methoxy-2-methylpropan-2-yl)-9-((1-(methoxymethyl)cyclopropyl)methoxy)-2-oxo-6,7-dihydro-2H-pyrido[2,1-α]isoquinoline-3-carboxylic acid] it was 5.34 nM; in that of `COCC1(COc2cc3c(cc2OC)-c2cc(=O)c(C(=O)O)cn2C(C(C)(C)COC)C3)COC1` (racemic) [Compound I-55-rac, 10-methoxy-6-(1-methoxy-2-methylpropan-2-yl)-9-((3-(methoxymethyl)oxetan-3-yl)methoxy)-2-oxo-6,7-dihydro-2H-pyrido[2,1-α]isoquinoline-3-carboxylic acid], 7.23 nM; in that of `COCC(C)(C)C1Cc2cc(OCC3CC(OC)C3)c(OC)cc2-c2cc(=O)c(C(=O)O)cn21` (racemic) [Compound I-56-rac, 10-methoxy-6-(1-methoxy-2-methylpropan-2-yl)-9-((3-methoxycyclobutyl)methoxy)-2-oxo-6,7-dihydro-2H-pyrido[2,1-α]isoquinoline-3-carboxylic acid], 5.95 nM.
The term AUC(0-t) denotes the area under the concentration-time curve up to a stated or last time point. By half-life is commonly meant the time in which the quantity being followed falls by half. The low end stands for rapid decline, the high end for slow decline. Usually Cmax stands for the highest concentration seen after dosing. The Tmax is the time from dosing to the highest level. As to `COCCCOc1cc2c(cc1OC)-c1cc(=O)c(C(=O)O)cn1[C@H](C(C)C)C2` [A, reference compound], in data set [1], the EC50 was 4.06 nM. The F in data set [2] turned out to be 21.5%. In data set [2] (IV 2 mg/kg), the AUC(0-t) is 1610 ng·h/mL, the clearance worked out at 20.8 mL/min/kg, the half-life was 0.94 h and the Vd was 1.17 L/kg. In data set [2] (PO 10 mg/kg), the AUC(0-t) came out at 1760 ng·h/mL, the Cmax came out at 475 ng/mL, the Tmax is 2.2 h and the half-life is 1.5 h.
Consider `COc1cc2c(cc1O[C@@H]1CCOC1)C[C@@H](C(C)C)n1cc(C(=O)O)c(=O)cc1-2` [Compound I-2, (S)-6-isopropyl-10-methoxy-2-oxo-9-(((R)-tetrahydrofuran-3-yl)oxy)-6,7-dihydro-2H-pyrido[2,1-α]isoquinoline-3-carboxylic acid], for which the EC50 in data set [1] is 1.82 nM. Moreover, in data set [2], the F was 18.9% and the “PK properties (overall judgement)” value is on record as “good PK properties”. In data set [2] (IV 2 mg/kg), the AUC(0-t) was 1800 ng·h/mL, the clearance worked out at 18.6 mL/min/kg, the half-life is 1.8 h and the Vd turned out to be 1.51 L/kg. In addition, in data set [2] (PO 10 mg/kg), the AUC(0-t) is 1690 ng·h/mL, the peak level (Cmax) was 437 ng/mL, the Tmax turned out to be 1.2 h and the half-life was 1.6 h.
`COc1cc2c(cc1O[C@H]1C[C@H](OC)C1)C[C@@H](C(C)C)n1cc(C(=O)O)c(=O)cc1-2` [Compound I-5, (S)-6-isopropyl-10-methoxy-9-((1R,3S)-3-methoxycyclobutoxy)-2-oxo-6,7-dihydro-2H-pyrido[2,1-α]isoquinoline-3-carboxylic acid]: in data set [1], the EC50 turned out to be 1.61 nM. For the same compound, in data set [2], the F was determined as 37.7% and the “PK properties (overall judgement)” value is given as “good PK properties”. Besides, in data set [2] (IV 2 mg/kg), the AUC(0-t) is 2940 ng·h/mL, the clearance came out at 11.3 mL/min/kg, the half-life is 0.98 h and the Vd was determined as 0.858 L/kg. Besides, in data set [2] (PO 10 mg/kg), the AUC(0-t) was 5500 ng·h/mL, the Cmax stood at 1340 ng/mL, the Tmax came to 0.5 h and the half-life was 1.7 h.
For `COCC1(COc2cc3c(cc2OC)-c2cc(=O)c(C(=O)O)cn2[C@H](C(C)C)C3)CC1` [Compound I-6, (S)-6-isopropyl-10-methoxy-9-((1-(methoxymethyl)cyclopropyl)methoxy)-2-oxo-6,7-dihydro-2H-pyrido[2,1-α]isoquinoline-3-carboxylic acid], in data set [1], the EC50 came out at 3.15 nM. Besides, in data set [2], the F turned out to be 45.8% and the “PK properties (overall judgement)” value is “good PK properties”. Also, in data set [2] (IV 2 mg/kg), the AUC(0-t) turned out to be 1020 ng·h/mL, the clearance is 33.6 mL/min/kg, the half-life is 0.71 h and the Vd is 1.74 L/kg. Moreover, in data set [2] (PO 10 mg/kg), the AUC(0-t) turned out to be 2310 ng·h/mL, the concentration peaked (Cmax) at 1490 ng/mL, the Tmax worked out at 0.58 h and the half-life is 1.9 h.
Regarding `COCC1(COc2cc3c(cc2OC)-c2cc(=O)c(C(=O)O)cn2[C@H](C(C)C)C3)COC1` [Compound I-7, (S)-6-isopropyl-10-methoxy-9-((3-(methoxymethyl)oxetan-3-yl)methoxy)-2-oxo-6,7-dihydro-2H-pyrido[2,1-α]isoquinoline-3-carboxylic acid], the EC50 in data set [1] is 3.82 nM. In addition, the F in data set [2] amounted to 8.1%. Also, in data set [2] (IV 2 mg/kg), the AUC(0-t) stood at 1180 ng·h/mL, the clearance was found to be 28.8 mL/min/kg, the half-life is 0.67 h and the Vd was found to be 1.39 L/kg. In data set [2] (PO 10 mg/kg), the AUC(0-t) was determined as 470 ng·h/mL, the highest level (Cmax) was 103 ng/mL, the Tmax was determined as 1 h and the half-life is 1.4 h.
In the case of `COCCC#Cc1cc2c(cc1OC)-c1cc(=O)c(C(=O)O)cn1[C@H](C(C)C)C2` [Compound I-12, (S)-6-isopropyl-10-methoxy-9-(4-methoxybut-1-yn-1-yl)-2-oxo-6,7-dihydro-2H-pyrido [2,1-α]isoquinoline-3-carboxylic acid], the EC50 in data set [1] came out at 3.83 nM.
Still for that read-out and setting: to `COc1cc2c(cc1O[C@H]1C[C@@H](OC)C1)C[C@@H](C(C)C)n1cc(C(=O)O)c(=O)cc1-2` [Compound I-19, (S)-6-isopropyl-10-methoxy-9-((1 s, 3R)-3-methoxycyclobutoxy)-2-oxo-6,7-dihydro-2H-pyrido[2,1-α]isoquinoline-3-carboxylic acid] belongs 2.89 nM.
On to `COc1cc2c(cc1OC1CCC1)C[C@@H](C(C)C)n1cc(C(=O)O)c(=O)cc1-2` [Compound I-20, (S)-9-cyclobutoxy-6-isopropyl-10-methoxy-2-oxo-6,7-dihydro-2H-pyrido[2,1-α]isoquinoline-3-carboxylic acid], for which the EC50 in data set [1] is 2.56 nM.

(Values after patent US20190381014A1, “ISOQUINOLINONE COMPOUNDS AND USE THEREOF IN PREPARATION OF ANTIVIRAL DRUGS” (Ginkgo Pharma Co., Ltd., priority 2016, published 2019).)
